Source: US9834542B2, “LXR modulators” (BRISTOL-MYERS SQUIBB COMPANY, priority 2013, dated 2017)

Target: T1, LXRβ (Homo sapiens, UniProt P55055)
T1 construct: Co-transfection expression plasmids, comprising full-length LXRα (pCMX-h LXRα[…] or LXRβ (pCMX-hLXRβ)); expressed in transfected cells; host or cells: CV-1 African Green Monkey Kidney Cells
T1 sequence (P55055 1-460): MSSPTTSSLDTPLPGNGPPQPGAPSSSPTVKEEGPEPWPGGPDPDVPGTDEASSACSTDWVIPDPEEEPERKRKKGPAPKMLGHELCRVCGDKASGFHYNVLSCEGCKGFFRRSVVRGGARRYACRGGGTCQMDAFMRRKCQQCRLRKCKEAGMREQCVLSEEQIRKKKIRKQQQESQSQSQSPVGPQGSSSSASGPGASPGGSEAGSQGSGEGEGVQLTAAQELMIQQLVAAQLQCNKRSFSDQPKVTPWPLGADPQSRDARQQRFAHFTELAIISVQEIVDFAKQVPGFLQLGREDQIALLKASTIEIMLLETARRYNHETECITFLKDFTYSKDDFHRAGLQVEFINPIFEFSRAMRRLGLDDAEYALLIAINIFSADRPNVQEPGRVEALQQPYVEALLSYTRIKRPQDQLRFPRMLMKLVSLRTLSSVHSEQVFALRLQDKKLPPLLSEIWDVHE
T1 sequence (P19793 1-462 partner): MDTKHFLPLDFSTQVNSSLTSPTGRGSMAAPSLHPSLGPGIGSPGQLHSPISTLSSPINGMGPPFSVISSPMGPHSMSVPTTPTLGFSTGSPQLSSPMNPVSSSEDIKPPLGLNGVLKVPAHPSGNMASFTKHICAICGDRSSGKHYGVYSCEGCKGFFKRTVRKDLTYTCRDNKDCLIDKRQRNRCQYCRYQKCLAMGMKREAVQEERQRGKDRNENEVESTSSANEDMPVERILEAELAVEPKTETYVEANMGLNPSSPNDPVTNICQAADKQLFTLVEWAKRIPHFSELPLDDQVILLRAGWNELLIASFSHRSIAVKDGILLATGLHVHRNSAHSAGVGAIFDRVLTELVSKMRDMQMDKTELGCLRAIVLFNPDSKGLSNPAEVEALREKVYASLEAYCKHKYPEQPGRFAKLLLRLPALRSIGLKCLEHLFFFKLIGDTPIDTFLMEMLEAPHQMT
Assay: Co-transfection assay (LXRE luciferase reporter), LXRβ
Format: cell-based
Conditions: for EC50: CV-1 cells transfected with pCMX-hLXRβ and LXREx1-Tk-Luciferase, 20 hours incubation; for Emax: LXRβ co-transfection, relative to high control 1-(2,4-difluorobenzyl)-2-oxo-6-(4-phenoxyphenyl)-4-(trifluoromethyl)-1,2-dihydropyridine-3-carbonitrile, read-out: % Efficacy
Summary of the method: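 CV-1 cells transiently co-transfected with full-length human LXRβ expression plasmid, LXREx1-Tk-luciferase reporter and β-galactosidase control, then exposed to compound for 20 h at 37 °C. Luciferase luminescence read; EC50 from 11-point, ½-log dose–response fit, efficacy relative to high-control agonist maximum.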

EC50	Emax	Compound
118 nM	123%	CCOCc1ccc(-c2ccc(-n3cc(C(F)(F)F)nc3C)c(-n3nncc3-c3ccc(OC(F)(F)F)cc3)c2)cc1S(C)(=O)=O [Example 85, 1-{4′-[(ethyloxy)methyl]-3′-(methylsulfonyl)-4-[2-methyl-4-(trifluoromethyl)-1H-imidazol-1-yl]biphenyl-3-yl}-5-{4-[(trifluoromethyl)oxy]phenyl}-1H-1,2,3-triazole]
662 nM	89%	Cc1nc(C(F)(F)F)cn1-c1ccc(-c2ccc(CNS(C)(=O)=O)c(S(C)(=O)=O)c2)cc1-n1nncc1-c1ccc(OC(F)(F)F)cc1 [Example 87, N-{[3-(methylsulfonyl)-4′-[2-methyl-4-(trifluoromethyl)-1H-imidazol-1-yl]-3′-(5-{4-[(trifluoromethyl)oxy]phenyl}-1H-1,2,3-triazol-1-yl)biphenyl-4-yl]methyl}methanesulfonamide]
306 nM	111%	COCc1c(F)cc(-c2ccc(-n3cc(C(F)(F)F)nc3C)c(-n3nncc3-c3ccc(OC(F)(F)F)cc3)c2)cc1S(C)(=O)=O [Example 88, 1-{3′-fluoro-4′-[(methyloxy)methyl]-5′-(methylsulfonyl)-4-[2-methyl-4-(trifluoromethyl)-1H-imidazol-1-yl]biphenyl-3-yl}-5-{4-[(trifluoromethyl)oxy]phenyl}-1H-1,2,3-triazole]
316 nM	83%	COCc1ccc(-c2ccc(-n3cc(C(F)(F)F)nc3C)c(-n3nncc3-c3ccc(OC(F)(F)F)cc3)c2)cc1S(C)(=O)=O [Example 89, 1-{4′-[(methyloxy)methyl]-3′-(methylsulfonyl)-4-[2-methyl-4-(trifluoromethyl)-1H-imidazol-1-yl]biphenyl-3-yl}-5-{4-[(trifluoromethyl)oxy]phenyl}-1H-1,2,3-triazole]
176 nM	105%	Cc1nc(C(F)(F)F)cn1-c1ccc(-c2ccc(CO)c(S(C)(=O)=O)c2)cc1-n1nncc1-c1ccc(OC(F)(F)F)cc1 [Example 90, [3-(methylsulfonyl)-4′-[2-methyl-4-(trifluoromethyl)-1H-imidazol-1-yl]-3′-(5-{4-[(trifluoromethyl)oxy]phenyl}-1H-1,2,3-triazol-1-yl)biphenyl-4-yl]methanol]
484 nM	109%	Cc1nc(C(F)(F)F)cn1-c1ccc(-c2cc(F)cc(S(C)(=O)=O)c2)cc1-n1nncc1-c1ccc(OC(F)(F)F)cc1 [Example 91, 1-{3′-fluoro-5′-(methylsulfonyl)-4-[2-methyl-4-(trifluoromethyl)-1H-imidazol-1-yl]biphenyl-3-yl}-5-{4-[(trifluoromethyl)oxy]phenyl}-1H-1,2,3-triazole]
2340 nM	71%	COc1ccc(-c2ccc(-n3cc(C(F)(F)F)nc3C)c(-n3nncc3-c3ccc(OC(F)(F)F)cc3)c2)cc1S(C)(=O)=O [Example 94, 1-{4′-(methyloxy)-3′-(methylsulfonyl)-4-[2-methyl-4-(trifluoromethyl)-1H-imidazol-1-yl]biphenyl-3-yl}-5-{4-[(trifluoromethyl)oxy]phenyl}-1H-1,2,3-triazole]

The next lines start with the compound.

Compound	EC50	Emax
Cc1nc(C(F)(F)F)cn1-c1ccc(-c2cc(F)c(CO)c(S(C)(=O)=O)c2)cc1-n1nncc1-c1ccc(Cl)c(Cl)c1 [Example 81, {3′-[5-(3,4-dichlorophenyl)-1H-1,2,3-triazol-1-yl]-3-fluoro-5-(methylsulfonyl)-4′-[2-methyl-4-(trifluoromethyl)-1H-imidazol-1-yl]biphenyl-4-yl}methanol]	85 nM	99%
COC(=O)c1ccc(-c2cnnn2-c2cc(-c3cccc(S(C)(=O)=O)c3)ccc2-n2cc(C(F)(F)F)nc2C)cc1 [Example 82, methyl 4-(1-{3′-(methylsulfonyl)-4-[2-methyl-4-(trifluoromethyl)-1H-imidazol-1-yl]biphenyl-3-yl}-1H-1,2,3-triazol-5-yl)benzoate]	260 nM	89%
Cc1cn(-c2ccc(-c3cccc(S(C)(=O)=O)c3)cc2-n2nncc2-c2ccc(OC(F)(F)F)cc2)c(C)n1 [Example 83, 1-[4-(2,4-dimethyl-1H-imidazol-1-yl)-3′-(methylsulfonyl)biphenyl-3-yl]-5-{4-[(trifluoromethyl)oxy]phenyl}-1H-1,2,3-triazole]	1160 nM	69%
Cc1cn(-c2ccc(-c3cc(F)c(CO)c(S(C)(=O)=O)c3)cc2-n2nncc2-c2ccc(OC(F)(F)F)cc2)c(C)n1 [Example 84, [4′-(2,4-dimethyl-1H-imidazol-1-yl)-3-fluoro-5-(methylsulfonyl)-3′-(5-{4-[(trifluoromethyl)oxy]phenyl)-1H-1,2,3-triazol-1-yl)biphenyl-4-yl]methanol]	852 nM	96%
Cc1nc(C(F)(F)F)cn1-c1ccc(-c2cccc(S(C)(=O)=O)c2)cc1-n1nncc1-c1ccc2occc2c1 [Example 86, 5-(1-benzofuran-5-yl)-1-{3′-(methylsulfonyl)-4-[2-methyl-4-(trifluoromethyl)-1H-imidazol-1-yl]biphenyl-3-yl}-1H-1,2,3-triazole]	583 nM	77%
CCS(=O)(=O)c1cc(-c2ccc(-n3cc(C(F)(F)F)nc3C)c(-n3nncc3-c3ccc(OC(F)(F)F)cc3)c2)cc(F)c1CO [Example 92, [3-(ethylsulfonyl)-5-fluoro-4′-[2-methyl-4-(trifluoromethyl)-1H-imidazol-1-yl]-3′-(5-{4-[(trifluoromethyl)oxy]phenyl}-1H-1,2,3-triazol-1-yl)biphenyl-4-yl]methanol]	502 nM	93%
COc1ccc(-c2cnnn2-c2cc(-c3cccc(S(C)(=O)=O)c3)ccc2-n2cc(C(F)(F)F)nc2C)c(OC)c1 [Example 93, 5-[2,4-bis(methyloxy)phenyl]-1-{3′-(methylsulfonyl)-4-[2-methyl-4-(trifluoromethyl)-1H-imidazol-1-yl]biphenyl-3-yl}-1H-1,2,3-triazole]	2150 nM	40%
Cc1nc(C(F)(F)F)cn1-c1ccc(-c2cccc(C(C)(C)C(=O)O)c2)cc1-n1nncc1-c1ccc(OC(F)(F)F)cc1 [Example 95, 2-methyl-2-{4′-[2-methyl-4-(trifluoromethyl)-1H-imidazol-1-yl]-3′-(5-{4-[(trifluoromethyl)oxy]phenyl}-1H-1,2,3-triazol-1-yl)biphenyl-3-yl}propanoic acid]	2850 nM	139%
Cc1nc(C(F)(F)F)cn1-c1ccc(-c2cccc(S(=O)(=O)C(C)C)c2)cc1-n1nncc1-c1ccc(OC(F)(F)F)cc1 [Example 98, 1-{3′-[(1-methylethyl)sulfonyl]-4-[2-methyl-4-(trifluoromethyl)-1H-imidazol-1-yl]biphenyl-3-yl}-5-{4-[(trifluoromethyl)oxy]phenyl}-1H-1,2,3-triazole]	1030 nM	91%
Cc1nc(C(F)(F)F)cn1-c1cc(F)c(-c2cccc(S(C)(=O)=O)c2)cc1-n1nncc1-c1ccc(OC(F)(F)F)cc1 [Example 99, 1-{6-fluoro-3′-(methylsulfonyl)-4-[2-methyl-4-(trifluoromethyl)-1H-imidazol-1-yl]biphenyl-3-yl}-5-{4-[(trifluoromethyl)oxy]phenyl}-1H-1,2,3-triazole]	1010 nM	86%
Cc1nc(C(F)(F)F)cn1-c1cc(F)c(-c2cccc(S(C)(=O)=O)c2)cc1-n1nncc1-c1ccc(Cl)cc1 [Example 100, 5-(4-chlorophenyl)-1-{6-fluoro-3′-(methylsulfonyl)-4-[2-methyl-4-(trifluoromethyl)-1H-imidazol-1-yl]biphenyl-3-yl}-1H-1,2,3-triazole]	1110 nM	97%
Cc1nc(C(F)(F)F)cn1-c1cc(F)c(-c2cccc(S(C)(=O)=O)c2)cc1-n1nncc1-c1ccc(Cl)cc1Cl [Example 101, 5-(2,4-dichlorophenyl)-1-{6-fluoro-3′-(methylsulfonyl)-4-[2-methyl-4-(trifluoromethyl)-1H-imidazol-1-yl]biphenyl-3-yl}-1H-1,2,3-triazole]	782 nM	73%
Cc1nc(C(F)(F)F)cn1-c1ccc(-c2cc(F)c(CO)c(S(C)(=O)=O)c2)c(Cl)c1-n1nncc1-c1ccc(Cl)cc1 [Example 102, {2′-chloro-3′-[5-(4-chlorophenyl)-1H-1,2,3-triazol-1-yl]-3-fluoro-5-(methylsulfonyl)-4′-[2-methyl-4-(trifluoromethyl)-1H-imidazol-1-yl]biphenyl-4-yl}methanol]	1940 nM	57%
